# Experimental data from patent US4399126A, “Modulators of the complement system” (American Cyanamid Company, priority 1982, dated 1983).
# Where two headings read alike, the source gives them in different places.
# How the values were obtained:
# [1] = system: complement system; details: Br. J. Exp. Pathol. 33: 327 (1952); cited from earlier work
# [2] = system: human serum; details: in vitro and in vivo, judged by reduction in total hemolytic complement activity; cited from earlier work
# [3] = system: hereditary angioneurotic edema; details: literature reports; cited from earlier work
# [4] = target: T1, activated human C1 (Homo sapiens, UniProt P09871); assay: Test Code 026 (C1 inhibitor); assay type: biochemical; details: serial twofold dilution assay; higher well number indicates higher activity
# T1 sequence (P09871 16-437 limits assumed): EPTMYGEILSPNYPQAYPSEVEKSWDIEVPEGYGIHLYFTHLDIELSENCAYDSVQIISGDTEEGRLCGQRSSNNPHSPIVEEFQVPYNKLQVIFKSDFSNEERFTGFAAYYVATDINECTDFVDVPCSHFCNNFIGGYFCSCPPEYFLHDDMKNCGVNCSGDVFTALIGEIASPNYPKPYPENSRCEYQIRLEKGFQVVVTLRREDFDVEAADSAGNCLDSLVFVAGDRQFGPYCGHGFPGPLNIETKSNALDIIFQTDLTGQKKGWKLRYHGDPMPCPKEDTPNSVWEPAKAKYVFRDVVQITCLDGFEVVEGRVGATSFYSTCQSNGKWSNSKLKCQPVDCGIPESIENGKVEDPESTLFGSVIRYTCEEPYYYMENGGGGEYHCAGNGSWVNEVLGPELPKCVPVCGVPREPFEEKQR
# T1 sequence (P09871 438-688 limits assumed): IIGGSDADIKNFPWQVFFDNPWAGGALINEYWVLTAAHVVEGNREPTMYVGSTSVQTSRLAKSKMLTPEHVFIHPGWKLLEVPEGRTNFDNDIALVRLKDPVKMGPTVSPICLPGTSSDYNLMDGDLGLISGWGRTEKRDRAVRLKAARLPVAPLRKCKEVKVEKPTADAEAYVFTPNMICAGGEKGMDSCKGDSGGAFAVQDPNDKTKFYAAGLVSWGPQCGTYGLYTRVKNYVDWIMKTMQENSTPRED
# [5] = system: late components of human complement (C3-C9); assay: Test Code 035 (C3-C9 inhibitor), lysis of EAC 142; assay type: biochemical; details: serial twofold dilution assay; higher well number indicates higher activity
# [6] = system: complement activity of sera; assay: Guinea Pig Intraperitoneal Test (GPIP); assay type: in vivo; details: Cavia porcellus, ip, 200 mg/kg i.p., capillary complement assay
# Description: Percent inhibition is calculated by comparison with simultaneous controls.
compound,measurement,setting,value
heparin,anticomplementary effect,[1],anticomplementary effect
pentosan-polysulfoester,anticomplementary activity on human serum,[2],anticomplementary activity
NC[C@H]1CC[C@H](C(=O)O)CC1 [tranexamic acid],success in the treatment of hereditary angioneurotic edema,[3],used with success
"Nc1ccc2cc(S(=O)(=O)[O-])cc(O)c2c1N=Nc1ccc(NC(=O)Nc2ccc(N=Nc3c(N)ccc4cc(S(=O)(=O)[O-])cc(O)c34)c(S(=O)(=O)[O-])c2)cc1S(=O)(=O)[O-].[Na+].[Na+].[Na+].[Na+] [chlorazol fast pink, 3,3'-ureylenebis-[6-(2-amino-8-hydroxy-6-sulfo-1-naphthylazo)benzenesulfonic acid], tetrasodium salt]",anticomplementary effect,[1],anticomplementary effect
"O=C(CCCC(=O)Nc1ccc(S[C@@H]2O[C@H](COS(=O)(=O)O)[C@@H](O[C@H]3O[C@H](COS(=O)(=O)O)[C@@H](OS(=O)(=O)O)[C@H](OS(=O)(=O)O)[C@H]3OS(=O)(=O)O)[C@H](OS(=O)(=O)O)[C@H]2OS(=O)(=O)O)cc1)Nc1ccc(S[C@@H]2O[C@H](COS(=O)(=O)O)[C@@H](O[C@H]3O[C@H](COS(=O)(=O)O)[C@@H](OS(=O)(=O)O)[C@H](OS(=O)(=O)O)[C@H]3OS(=O)(=O)O)[C@H](OS(=O)(=O)O)[C@H]2OS(=O)(=O)O)cc1.[Na].[Na].[Na].[Na].[Na].[Na].[Na].[Na].[Na].[Na].[Na].[Na].[Na].[Na] [tetradecasodium N,N'-bis[4-[2,3,6-tri-O-sulfo-4-O-(2,3,4,6-tetra-O-sulfo-α-D-glucopyranosyl)-β-D-glucopyranosylthio]phenyl]pentanediamide]",in vitro Activity Cl 026 Wells,[4],9.9 Wells
same,in vitro Activity C-Late 035 Wells,[5],1.5 Wells
same,inhibition at 200 mg/kg,"[6]; blood 2 hours after injection, read-out: in vivo Activity Guinea Pig % Inhibition Intraperitoneal, 2 hours",90%
same,inhibition at 200 mg/kg,"[6]; blood 6 hours after injection, read-out: in vivo Activity Guinea Pig % Inhibition Intraperitoneal, 6 hours",88%
same,inhibition at 200 mg/kg,"[6]; blood 24 hours after injection, read-out: in vivo Activity Guinea Pig % Inhibition Intraperitoneal, 24 hours",44%
NCCCCCC(=O)O [epsilon-aminocaproic acid],success in the treatment of hereditary angioneurotic edema,[3],used with success
